# Experimental data taken from ChEMBL document CHEMBL1201862, “PubChem BioAssay data set” (2004).
#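 The compound was tested at five concentrations on cells cultured in 96-well plates, with a 48-hour exposure period. The concentration for 50% growth inhibition is given as GI50.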 Active and inactive are the calls of the source. Cut-off read from the data, not from the text of the source: active = GI50 up to about 1.1 µM and inactive = higher.
# How the values were obtained:
# Assay in all cases: NCI anticancer screen, dose series, 48 h
# 786-0 = tested on: 786-0
# A498 = tested on: A498
# A549 = tested on: A549
# ACHN = tested on: ACHN
# BT-549 = tested on: BT-549
# CAKI-1 = tested on: CAKI-1
# CCRF-CEM = tested on: CCRF-CEM
# COLO 205 = tested on: COLO 205
# DU-145 = tested on: DU-145
# EKVX = tested on: EKVX
# HCC 2998 = tested on: HCC 2998
# HCT-116 = tested on: HCT-116
# HCT-15 = tested on: HCT-15
# HL-60 = tested on: HL-60
# HOP-62 = tested on: HOP-62
# HOP-92 = tested on: HOP-92
# HT-29 = tested on: HT-29
# Hs-578T = tested on: Hs-578T
# IGROV-1 = tested on: IGROV-1
# K562 = tested on: K562
# KM12 = tested on: KM12
# LOX IMVI = tested on: LOX IMVI
# M14 = tested on: M14
# MCF7 = tested on: MCF7
# MDA-MB-231 = tested on: MDA-MB-231
# MDA-MB-435 = tested on: MDA-MB-435
# MDA-N = tested on: MDA-N
# MOLT-4 = tested on: MOLT-4
# Malme-3M = tested on: Malme-3M
# NCI-H226 = tested on: NCI-H226
# NCI-H23 = tested on: NCI-H23
# NCI-H460 = tested on: NCI-H460
# NCI-H522 = tested on: NCI-H522
# NCI/ADR-RES = tested on: NCI/ADR-RES
# OVCAR-3 = tested on: OVCAR-3
# OVCAR-4 = tested on: OVCAR-4
# OVCAR-5 = tested on: OVCAR-5
# OVCAR-8 = tested on: OVCAR-8
# PC-3 = tested on: PC-3
# RPMI-8226 = tested on: RPMI-8226
# RXF 393 = tested on: RXF 393
# SF-268 = tested on: SF-268
# SF-295 = tested on: SF-295
# SF-539 = tested on: SF-539
# SK-MEL-28 = tested on: SK-MEL-28
# SK-MEL-2 = tested on: SK-MEL-2
# SK-MEL-5 = tested on: SK-MEL-5
# SK-OV-3 = tested on: SK-OV-3
# SN12C = tested on: SN12C
# SNB-19 = tested on: SNB-19
# SR = tested on: SR
# SW-620 = tested on: SW-620
# T47D = tested on: T47D
# TK-10 = tested on: TK-10
# U-251 = tested on: U-251
# UACC-257 = tested on: UACC-257
# UACC-62 = tested on: UACC-62
# UO-31 = tested on: UO-31
# SNB-75 = tested on: SNB-75
compound,measurement,setting,value
C[C@H](CCC(=O)NN)[C@H]1CC[C@H]2[C@@H]3CC[C@@H]4C[C@H](O)CC[C@]4(C)[C@H]3CC[C@]12C,GI50,786-0,36.4 µM (inactive)
same,GI50,A498,79.3 µM (inactive)
same,GI50,A549,54.1 µM (inactive)
same,GI50,ACHN,54.8 µM (inactive)
same,GI50,BT-549,57.8 µM (inactive)
same,GI50,CAKI-1,46.3 µM (inactive)
same,GI50,CCRF-CEM,12.3 µM (inactive)
same,GI50,COLO 205,31.6 µM (inactive)
same,GI50,DU-145,> 50.8 µM (inactive)
same,GI50,EKVX,43 µM (inactive)
same,GI50,HCC 2998,41.4 µM (inactive)
same,GI50,HCT-116,41 µM (inactive)
same,GI50,HCT-15,39.7 µM
same,GI50,HL-60,8.53 µM (inactive)
same,GI50,HOP-62,> 100 µM (inactive)
same,GI50,HOP-92,> 86.5 µM (inactive)
same,GI50,HT-29,27.7 µM (inactive)
same,GI50,Hs-578T,> 100 µM (inactive)
same,GI50,IGROV-1,83.4 µM (inactive)
same,GI50,K562,14.7 µM (inactive)
same,GI50,KM12,39.2 µM (inactive)
same,GI50,LOX IMVI,31.6 µM (inactive)
same,GI50,M14,25.4 µM (inactive)
same,GI50,MCF7,31.7 µM (inactive)
same,GI50,MDA-MB-231,40.8 µM (inactive)
same,GI50,MDA-MB-435,44.2 µM (inactive)
same,GI50,MDA-N,75.7 µM (inactive)
same,GI50,MOLT-4,10.4 µM (inactive)
same,GI50,Malme-3M,52.1 µM (inactive)
same,GI50,NCI-H226,> 74.6 µM (inactive)
same,GI50,NCI-H23,41.2 µM (inactive)
same,GI50,NCI-H460,52.1 µM (inactive)
same,GI50,NCI-H522,29.2 µM (inactive)
same,GI50,NCI/ADR-RES,64.1 µM (inactive)
same,GI50,OVCAR-3,32 µM (inactive)
same,GI50,OVCAR-4,> 67.1 µM (inactive)
same,GI50,OVCAR-5,> 88.3 µM (inactive)
same,GI50,OVCAR-8,37.2 µM (inactive)
same,GI50,PC-3,44.8 µM (inactive)
same,GI50,RPMI-8226,20.7 µM (inactive)
same,GI50,RXF 393,21.4 µM (inactive)
same,GI50,SF-268,65.3 µM (inactive)
same,GI50,SF-295,> 68.2 µM (inactive)
same,GI50,SF-539,84.1 µM (inactive)
same,GI50,SK-MEL-28,> 74.8 µM (inactive)
same,GI50,SK-MEL-2,> 88.5 µM (inactive)
same,GI50,SK-MEL-5,23.4 µM (inactive)
same,GI50,SK-OV-3,> 100 µM (inactive)
same,GI50,SN12C,55.7 µM (inactive)
same,GI50,SNB-19,97.3 µM (inactive)
same,GI50,SR,18.6 µM (inactive)
same,GI50,SW-620,71.8 µM (inactive)
same,GI50,T47D,24.8 µM (inactive)
same,GI50,TK-10,38.3 µM (inactive)
same,GI50,U-251,> 73.5 µM (inactive)
same,GI50,UACC-257,61.7 µM (inactive)
same,GI50,UACC-62,> 100 µM (inactive)
same,GI50,UO-31,51.9 µM (inactive)
O=c1ccn(C/C=C/c2ccccc2)c(=S)n1C/C=C/c1ccccc1,GI50,786-0,> 100 µM (inactive)
same,GI50,A498,> 100 µM (inactive)
same,GI50,A549,17.7 µM (inactive)
same,GI50,ACHN,> 100 µM (inactive)
same,GI50,BT-549,68.2 µM (inactive)
same,GI50,CAKI-1,> 100 µM (inactive)
same,GI50,CCRF-CEM,18.4 µM (inactive)
same,GI50,COLO 205,54 µM (inactive)
same,GI50,DU-145,> 100 µM (inactive)
same,GI50,EKVX,66.8 µM (inactive)
same,GI50,HCC 2998,50.7 µM (inactive)
same,GI50,HCT-116,44.6 µM (inactive)
same,GI50,HCT-15,> 100 µM
same,GI50,HL-60,13.8 µM (inactive)
same,GI50,HOP-62,> 100 µM (inactive)
same,GI50,HOP-92,> 100 µM (inactive)
same,GI50,HT-29,> 100 µM (inactive)
same,GI50,Hs-578T,> 100 µM (inactive)
same,GI50,IGROV-1,> 100 µM (inactive)
same,GI50,K562,15.8 µM (inactive)
same,GI50,KM12,> 100 µM (inactive)
same,GI50,LOX IMVI,28.6 µM (inactive)
same,GI50,M14,73.6 µM (inactive)
same,GI50,MCF7,18.3 µM (inactive)
same,GI50,MDA-MB-231,> 100 µM (inactive)
same,GI50,MDA-MB-435,60 µM (inactive)
same,GI50,MDA-N,47.4 µM (inactive)
same,GI50,MOLT-4,50.4 µM (inactive)
same,GI50,Malme-3M,89.1 µM (inactive)
same,GI50,NCI-H226,> 100 µM (inactive)
same,GI50,NCI-H23,33.3 µM (inactive)
same,GI50,NCI-H460,80 µM (inactive)
same,GI50,NCI-H522,67.8 µM (inactive)
same,GI50,NCI/ADR-RES,> 100 µM (inactive)
same,GI50,OVCAR-3,> 100 µM (inactive)
same,GI50,OVCAR-4,90.4 µM (inactive)
same,GI50,OVCAR-5,> 100 µM (inactive)
same,GI50,OVCAR-8,> 100 µM (inactive)
same,GI50,PC-3,56.4 µM (inactive)
same,GI50,RXF 393,9.75 µM (inactive)
same,GI50,SF-268,> 100 µM (inactive)
same,GI50,SF-295,> 100 µM (inactive)
same,GI50,SK-MEL-28,> 100 µM (inactive)
same,GI50,SK-MEL-2,> 100 µM (inactive)
same,GI50,SK-MEL-5,35.2 µM (inactive)
same,GI50,SK-OV-3,> 100 µM (inactive)
same,GI50,SN12C,31.3 µM (inactive)
same,GI50,SNB-19,> 100 µM (inactive)
same,GI50,SNB-75,> 100 µM (inactive)
same,GI50,SR,8.24 µM (inactive)
same,GI50,SW-620,> 100 µM (inactive)
same,GI50,T47D,20.9 µM (inactive)
same,GI50,TK-10,> 100 µM (inactive)
same,GI50,U-251,77.1 µM (inactive)
same,GI50,UACC-257,32.8 µM (inactive)
same,GI50,UACC-62,> 100 µM (inactive)
same,GI50,UO-31,76 µM (inactive)
